From US20030031689A1, “Method of skin exfoliation” (priority 2001, published 2003)

How the values were obtained:
[1] = system: Normal Human Dermal Fibroblasts(NHDF); experiment: Glycosaminoglycan synthesis by 3H-glucosamine incorporation in fibroblast cultures; type: cell-based; conditions: 48 hours
Procedure: Both mannose and mannose-6-phosphate are tested at various levels from 0.01 mg/ml to 1 mg/ml for their ability to increase the amount of glycosaminoglycans in Normal Human Dermal Fibroblasts(NHDF), using TGF- at 5 and 10 ng/ml as a positive control. NHDF cells are seeded and grown to confluence in a 24 well plate prior to being treated with the test extracts(n=3). At the same time as the treatment, the cultures are labeled with […] of ^3H-glucosamine. The cultures are incubated for 48 hours and extensively washed to remove unbound ^3H-glucosamine prior to being lysed and counted on a scintillation counter. The resulting counts represent newly synthesized glycosaminoglycans. Since glucosamine is required for glycosaminoglycan synthesis, the radioactive glucosamine added to the culture will be incorporated into any glycosaminoglycans synthesized after the addition of the treatment samples. Relative protein levels are determined by comparing the absorbance at 280 nm, of the cell lysates, to the absorbances of a bovine serum albumin curve. […] TGF-, the positive control, is found to increase levels by 28% at 10 ng/ml.

[2] = system: skin flakiness (stratum corneocytes on the back of the hand); experiment: Reduction of skin flakiness (D-Squame discs, image analysis) after twice daily topical application to the hand; type: in vivo, human; conditions: used at 2%
Source text: In tests conducted to compare the efficacy of various agents of this type, mannose-6-phosphate caused a reduction in skin flakiness that exceeded the reduction achieved by N-acetyl glucosamine, lactobionic acid, and various mixtures of alpha hydroxy acids, all used at the same or higher levels than the mannose-6-phosphate. In a representative test, mannose-6-phosphate used at 1% reduced skin flakiness, a common measure of exfoliation efficacy, at a level of 24% after two weeks of treatment and 36% at four weeks. […] Thus, mannose-6-phosphate is particularly and unexpectedly effective for desquamation.
Thirty female subjects between the ages of 21 and 65 are selected to test the efficacy of mannose-6-phosphate in reducing skin flakiness, an indicator of exfoliation efficacy. The subjects are instructed not to use moisturizers or any other products on their hands, and their baseline measurements are taken. […] At the end of two and four weeks the subjects return for testing without applying the product for at least 12 hours and they are re-evaluated under the same conditions. […]
To evaluate the efficacy of the treatment products, four D-Squame discs are firmly and evenly pressed on the back of each hand with a hand held uniform pressure device and removed by gently pulling away from the skin. […] Desquamation is evaluated from the D-Squame discs via an OPTIMA image analyzer. […]

| SMILES | increase of glycosaminoglycan levels (normalized to protein levels) ([1]; 0.1 mg/ml) [%] | effect on glycosaminoglycan levels ([1]; levels lower and higher than 0.1 mg/ml (tested 0.01 mg/ml to 1 mg/ml)) | reduction in skin flakiness ([2]; after two weeks of treatment) [%] | reduction in skin flakiness ([2]; at four weeks) [%] |
| --- | --- | --- | --- | --- |
| O=C[C@@H](O)[C@@H](O)[C@H](O)[C@H](O)COP(=O)(O)O [mannose-6-phosphate] | 20 | did not have any significant effect |  |  |
| O=C(O)[C@H](O)[C@@H](O)[C@H](O[C@@H]1O[C@H](CO)[C@H](O)[C@H](O)[C@H]1O)[C@H](O)CO [lactobionic acid] |  |  | 16 | 25 |
